According to publication PMC8657793, “Synthesis, In Vitro and In Silico Anticancer Activity of New 4-Methylbenzamide Derivatives Containing 2,6-Substituted Purines as Potential Protein Kinases Inhibitors” (International Journal of Molecular Sciences, 2021):

What was measured:
A549 (lung carcinoma) = assay: MTT anti-proliferative assay, A549; format: cell-based; conditions: Homo sapiens, 48 h
Procedure: (§1) To determine the selectivity of the synthesized compounds 7–16 toward various cancer cells and normal human cells, the anti-proliferative activity against K562 (chronic myelogenous leukemia), HL-60 (promyelocytic leukemia), MCF-7 (breast adenocarcinoma), HeLa (cervix carcinoma), HepG2 (human liver cancer), A549 (lung carcinoma), OKP-GS (renal cell carcinoma), and normal cells RPMI 1788 (B lymphocyte, the human cell line) was investigated.
(§2) Each in vitro experiment was performed at least in triplicate and the standard deviation of absorbance was less than 10% of the mean. For the in vitro assays, a stock solution (1% DMSO in the appropriate buffer with the tested compound diluted under sonication) was prepared from which several dilutions were made with the appropriate buffer.
(§3) Human cell lines were obtained from the Institute of Cytology, Russian Academy of Sciences. The cell lines studied were maintained in RPMI 1640 medium (AppliChem, Darmstadt, Germany) supplemented with 20% (HL-60, RPMI 1788) fetal calf serum (HyClone, Cramlington, UK), in DMEM (A 549) and Eagle’s MEM (AppliChem) (MCF7, HeLa) with 10% fetal calf serum (HyClone). Cells were cultivated at 37 °C in a humidified atmosphere of 5% CO2. Cellular sensitivities to synthesized compounds and standards were measured with the MTT assay. Cells were plated in triplicate in 96-well plates (10^5 cells/well for suspended cell cultures and 5 × 10^3 cells/well for monolayer cultures); on the same day (suspended cell cultures) or on the following day (monolayer cultures), compounds were added at the appropriate dilutions. Anti-proliferative activity was studied at concentrations 0.1–50.0 µM. The reference drugs were imatinib, sorafenib and nilotinib. Plates were incubated under standard conditions for 48 h. Thereafter, 10 μL MTT (Sigma) in phosphate-buffered saline (5 mg/mL) was added. The plates were incubated for an additional 4 h and 150 μL dimethylsulphoxide (DMSO) was added to dissolve the formazan crystals. The optical density was read on a HALO MPR-95 Microplate Reader (Dynamica Scientific Ltd., Melbourne, Victoria, Australia) at 570 nm. The antiproliferative effects were taken as degrees of inhibition of tumor cells (%). The average of three parallel measurements was calculated for each concentration of test compound. The degree of cell growth suppression was plotted as a function of the logarithm of the concentration. The half maximal inhibitory concentration (IC50) was determined graphically for active compounds.

Bcr–Abl1 kinase = target: T1, Bcr–Abl1 kinase (Homo sapiens, UniProt P00519); assay: Abl1 Kinase Enzyme System / ADP-Glo kinase assay; format: biochemical; conditions: ATP 50 μM; for inhibition at 0.5 µM: 0.5 µM compound; for inhibition at 10 µM: 10 µM compound
T1 construct: purchased Promega
T1 sequence (P00519 whole entry): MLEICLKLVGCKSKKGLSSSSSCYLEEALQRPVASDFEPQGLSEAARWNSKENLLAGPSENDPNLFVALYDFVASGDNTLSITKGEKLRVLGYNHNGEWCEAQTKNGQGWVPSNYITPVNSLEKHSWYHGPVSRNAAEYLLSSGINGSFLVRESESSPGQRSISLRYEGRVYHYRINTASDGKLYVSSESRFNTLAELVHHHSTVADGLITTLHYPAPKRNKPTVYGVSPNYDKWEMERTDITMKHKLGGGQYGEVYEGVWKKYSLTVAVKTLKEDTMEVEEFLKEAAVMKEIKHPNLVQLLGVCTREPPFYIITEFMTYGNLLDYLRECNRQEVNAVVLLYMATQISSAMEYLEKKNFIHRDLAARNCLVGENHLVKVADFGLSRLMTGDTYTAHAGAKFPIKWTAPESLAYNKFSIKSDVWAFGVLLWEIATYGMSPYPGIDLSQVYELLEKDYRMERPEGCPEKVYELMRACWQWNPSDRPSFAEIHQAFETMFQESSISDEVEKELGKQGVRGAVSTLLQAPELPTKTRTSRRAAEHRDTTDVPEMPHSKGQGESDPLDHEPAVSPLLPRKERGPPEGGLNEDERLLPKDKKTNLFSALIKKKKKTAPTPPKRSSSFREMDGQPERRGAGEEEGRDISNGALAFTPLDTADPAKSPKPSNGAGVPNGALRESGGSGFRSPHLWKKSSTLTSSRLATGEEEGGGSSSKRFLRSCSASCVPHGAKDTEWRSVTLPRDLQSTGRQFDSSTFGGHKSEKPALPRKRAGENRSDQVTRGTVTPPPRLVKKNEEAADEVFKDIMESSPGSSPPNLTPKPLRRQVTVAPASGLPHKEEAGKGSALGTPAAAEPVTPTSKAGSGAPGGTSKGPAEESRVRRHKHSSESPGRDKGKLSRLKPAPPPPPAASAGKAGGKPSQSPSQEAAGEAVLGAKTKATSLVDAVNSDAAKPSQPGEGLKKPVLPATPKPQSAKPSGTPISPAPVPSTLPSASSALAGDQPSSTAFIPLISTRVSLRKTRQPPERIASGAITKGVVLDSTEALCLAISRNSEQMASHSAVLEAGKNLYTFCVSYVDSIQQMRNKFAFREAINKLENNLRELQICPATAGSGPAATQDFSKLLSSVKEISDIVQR
Procedure: (§4) At the end, 10 μL of kinase detection reagent was added into the well and incubated for 30 min to produce a luminescence signal.

HER2 = target: T2, HER2 (Homo sapiens, UniProt P04626); assay: Kinase Selectivity Profiling System TK-1 / ADP-Glo, HER2; format: biochemical
T2 construct: purchased Promega
T2 sequence (P04626 23-1255): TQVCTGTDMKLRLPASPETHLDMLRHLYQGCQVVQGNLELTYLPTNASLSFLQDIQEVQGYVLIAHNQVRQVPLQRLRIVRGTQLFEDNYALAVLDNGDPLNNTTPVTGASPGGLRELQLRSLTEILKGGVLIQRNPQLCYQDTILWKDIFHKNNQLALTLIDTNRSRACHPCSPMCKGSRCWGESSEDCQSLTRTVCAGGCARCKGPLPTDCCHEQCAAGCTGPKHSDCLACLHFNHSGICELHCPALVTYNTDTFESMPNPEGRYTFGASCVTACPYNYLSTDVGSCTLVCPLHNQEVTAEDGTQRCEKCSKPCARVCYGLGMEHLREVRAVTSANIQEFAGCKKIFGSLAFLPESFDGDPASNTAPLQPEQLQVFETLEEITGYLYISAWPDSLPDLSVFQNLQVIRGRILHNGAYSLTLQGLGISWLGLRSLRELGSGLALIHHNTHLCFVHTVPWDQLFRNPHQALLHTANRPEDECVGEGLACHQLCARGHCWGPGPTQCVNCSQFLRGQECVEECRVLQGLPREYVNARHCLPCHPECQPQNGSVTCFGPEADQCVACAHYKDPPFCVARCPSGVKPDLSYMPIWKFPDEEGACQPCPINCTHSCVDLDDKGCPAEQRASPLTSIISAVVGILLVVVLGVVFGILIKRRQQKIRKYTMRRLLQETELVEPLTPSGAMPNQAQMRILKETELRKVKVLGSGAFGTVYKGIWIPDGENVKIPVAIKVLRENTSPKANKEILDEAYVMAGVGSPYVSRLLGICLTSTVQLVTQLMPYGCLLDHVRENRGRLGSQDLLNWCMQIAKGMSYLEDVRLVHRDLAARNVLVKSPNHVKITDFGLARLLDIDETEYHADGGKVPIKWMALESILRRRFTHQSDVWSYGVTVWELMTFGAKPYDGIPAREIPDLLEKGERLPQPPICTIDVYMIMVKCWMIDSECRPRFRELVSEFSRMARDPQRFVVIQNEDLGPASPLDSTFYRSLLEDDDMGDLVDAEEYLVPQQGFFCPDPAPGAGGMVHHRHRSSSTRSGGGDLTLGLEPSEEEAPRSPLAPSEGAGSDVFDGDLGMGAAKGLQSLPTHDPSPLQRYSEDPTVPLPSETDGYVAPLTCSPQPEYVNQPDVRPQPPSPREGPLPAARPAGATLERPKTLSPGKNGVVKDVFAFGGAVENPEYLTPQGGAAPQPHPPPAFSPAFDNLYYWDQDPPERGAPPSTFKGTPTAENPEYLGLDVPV
Procedure: as §4

EGFR = target: T3, EGFR (Homo sapiens, UniProt P00533); assay: Kinase Selectivity Profiling System TK-1 / ADP-Glo, EGFR; format: biochemical
T3 construct: purchased Promega
T3 sequence (P00533 25-1210): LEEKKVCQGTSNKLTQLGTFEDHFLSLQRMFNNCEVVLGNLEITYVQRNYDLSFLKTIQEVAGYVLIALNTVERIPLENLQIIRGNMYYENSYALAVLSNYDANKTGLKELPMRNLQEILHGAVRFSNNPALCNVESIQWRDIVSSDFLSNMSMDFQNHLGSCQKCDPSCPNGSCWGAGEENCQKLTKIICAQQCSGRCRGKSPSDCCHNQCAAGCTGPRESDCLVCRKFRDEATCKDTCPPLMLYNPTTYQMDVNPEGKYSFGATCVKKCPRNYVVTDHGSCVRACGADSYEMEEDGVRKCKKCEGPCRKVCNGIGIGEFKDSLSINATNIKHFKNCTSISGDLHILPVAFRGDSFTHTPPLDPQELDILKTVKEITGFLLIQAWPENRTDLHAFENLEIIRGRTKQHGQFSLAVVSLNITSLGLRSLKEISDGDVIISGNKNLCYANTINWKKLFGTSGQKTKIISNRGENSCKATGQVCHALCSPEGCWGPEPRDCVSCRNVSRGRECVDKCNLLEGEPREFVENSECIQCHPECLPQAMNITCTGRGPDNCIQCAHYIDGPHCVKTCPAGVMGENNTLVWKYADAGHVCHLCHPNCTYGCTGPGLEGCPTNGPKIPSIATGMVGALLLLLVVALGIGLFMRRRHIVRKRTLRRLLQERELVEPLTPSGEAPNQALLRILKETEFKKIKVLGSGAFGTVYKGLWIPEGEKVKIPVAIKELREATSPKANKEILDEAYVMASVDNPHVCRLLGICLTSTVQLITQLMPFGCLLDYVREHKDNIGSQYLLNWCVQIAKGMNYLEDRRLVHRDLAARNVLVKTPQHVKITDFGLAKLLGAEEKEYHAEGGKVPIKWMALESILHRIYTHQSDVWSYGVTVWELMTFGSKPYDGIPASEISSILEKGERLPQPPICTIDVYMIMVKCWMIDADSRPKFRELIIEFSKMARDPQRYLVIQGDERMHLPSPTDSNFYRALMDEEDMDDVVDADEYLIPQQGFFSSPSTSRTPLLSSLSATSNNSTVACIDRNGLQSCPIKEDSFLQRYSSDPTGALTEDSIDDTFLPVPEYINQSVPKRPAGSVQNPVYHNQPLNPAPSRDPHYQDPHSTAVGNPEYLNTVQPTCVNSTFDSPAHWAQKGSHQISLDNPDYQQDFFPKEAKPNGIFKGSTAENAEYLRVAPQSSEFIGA
Procedure: as §4

[1] = test system: RPMI 1788 (B lymphocyte, normal human lymphoblastoid cells); assay: MTT assay on normal cells RPMI 1788; format: cell-based
Procedure: as §1, §2
as §3, with “Anti-proliferative activity was studied at concentrations 0.1–50.0 µM.” left out

HeLa (cervix carcinoma) = assay: MTT anti-proliferative assay, HeLa; format: cell-based; conditions: Homo sapiens, 48 h
Procedure: as §1, §2, §3

HER4 = target: T4, HER4 (Homo sapiens, UniProt Q15303); assay: Kinase Selectivity Profiling System TK-1 / ADP-Glo, HER4; format: biochemical
T4 construct: purchased Promega
Procedure: as §4

[2] = test system: HL-60 (promyelocytic leukemia); assay: MTT anti-proliferative assay, HL-60; format: cell-based; conditions: Homo sapiens, 48 h
Procedure: For the in vitro assays, a stock solution (1% DMSO in the appropriate buffer with the tested compound diluted under sonication) was prepared from which several dilutions were made with the appropriate buffer.
Human cell lines were obtained from the Institute of Cytology, Russian Academy of Sciences. […] Plates were incubated under standard conditions for 48 h.

KDR (VEGFR-2) = target: T5, KDR (VEGFR-2) (Homo sapiens, UniProt P35968); assay: Kinase Selectivity Profiling System TK-1 / ADP-Glo, KDR; format: biochemical
T5 construct: purchased Promega
T5 sequence (P35968 20-1356): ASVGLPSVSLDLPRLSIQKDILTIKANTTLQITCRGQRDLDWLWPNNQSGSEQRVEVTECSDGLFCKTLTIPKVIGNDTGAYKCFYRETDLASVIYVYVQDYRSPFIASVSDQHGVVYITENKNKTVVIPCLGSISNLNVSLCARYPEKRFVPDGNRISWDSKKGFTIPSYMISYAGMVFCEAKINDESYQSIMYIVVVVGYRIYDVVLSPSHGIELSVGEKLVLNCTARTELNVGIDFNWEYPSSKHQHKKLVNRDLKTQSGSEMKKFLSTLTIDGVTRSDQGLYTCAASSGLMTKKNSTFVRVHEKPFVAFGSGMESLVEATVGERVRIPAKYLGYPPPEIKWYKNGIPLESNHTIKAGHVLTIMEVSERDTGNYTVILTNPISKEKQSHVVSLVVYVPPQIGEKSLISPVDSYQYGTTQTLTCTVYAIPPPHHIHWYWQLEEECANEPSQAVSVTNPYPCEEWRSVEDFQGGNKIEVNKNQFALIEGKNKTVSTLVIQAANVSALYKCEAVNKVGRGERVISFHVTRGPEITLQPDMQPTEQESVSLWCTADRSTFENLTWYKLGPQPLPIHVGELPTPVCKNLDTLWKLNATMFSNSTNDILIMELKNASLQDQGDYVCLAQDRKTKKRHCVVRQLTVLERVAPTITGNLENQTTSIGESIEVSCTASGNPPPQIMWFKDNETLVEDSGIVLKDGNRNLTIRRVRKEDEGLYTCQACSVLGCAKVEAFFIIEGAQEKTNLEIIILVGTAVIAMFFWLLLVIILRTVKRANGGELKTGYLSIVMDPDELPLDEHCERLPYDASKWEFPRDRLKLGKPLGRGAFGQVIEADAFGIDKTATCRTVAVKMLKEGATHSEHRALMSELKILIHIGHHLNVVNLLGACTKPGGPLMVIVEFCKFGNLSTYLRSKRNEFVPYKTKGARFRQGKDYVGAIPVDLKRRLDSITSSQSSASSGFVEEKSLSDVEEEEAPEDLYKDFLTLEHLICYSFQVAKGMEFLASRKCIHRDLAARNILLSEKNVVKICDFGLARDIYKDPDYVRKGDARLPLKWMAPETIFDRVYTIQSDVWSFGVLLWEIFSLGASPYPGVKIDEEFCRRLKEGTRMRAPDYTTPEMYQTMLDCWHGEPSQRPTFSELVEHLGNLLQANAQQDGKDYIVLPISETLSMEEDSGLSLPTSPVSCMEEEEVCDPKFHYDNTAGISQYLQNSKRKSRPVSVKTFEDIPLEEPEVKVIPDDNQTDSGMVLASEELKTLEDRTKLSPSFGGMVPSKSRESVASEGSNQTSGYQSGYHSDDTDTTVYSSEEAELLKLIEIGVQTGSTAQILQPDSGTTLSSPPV
Procedure: as §4

[3] = test system: OKP-GS (renal cell carcinoma); assay: MTT anti-proliferative assay, OKP-GS; format: cell-based; conditions: Homo sapiens, 48 h
Procedure: as §1, §2, §3

IGF1R = target: T6, IGF1R (Homo sapiens, UniProt P08069); assay: Kinase Selectivity Profiling System TK-1 / ADP-Glo, IGF1R; format: biochemical
T6 construct: purchased Promega
Procedure: as §4

InsR = target: T7, InsR (Homo sapiens, UniProt P06213); assay: Kinase Selectivity Profiling System TK-1 / ADP-Glo, InsR; format: biochemical
T7 construct: purchased Promega
Procedure: as §4

PDGFRβ = target: T8, PDGFRβ (Homo sapiens, UniProt P09619); assay: Kinase Selectivity Profiling System TK-1 / ADP-Glo, PDGFRβ; format: biochemical
T8 construct: purchased Promega
Procedure: as §4

IC50 (A549 (lung carcinoma)) [µM]	inhibition at 0.5 µM (Bcr–Abl1 kinase) [%]	inhibition at 10 µM (Bcr–Abl1 kinase) [%]	% Inhibition at 1 µM, HER2 (HER2) [%]	inhibition at 1 µM (HER2) [%]	inhibition at 1 µM (EGFR) [%]	IC50 (HeLa (cervix carcinoma)) [µM]	inhibition at 1 µM (HER4) [%]	IC50 [2] [µM]	inhibition at 1 µM (KDR (VEGFR-2)) [%]	IC50 [3] [µM]	inhibition at 1 µM (IGF1R) [%]	inhibition at 1 µM (InsR) [%]	% Inhibition at 1 µM, PDGFRβ (PDGFRβ) [%]	inhibition at 1 µM (PDGFRβ) [%]	melting point [°C]	SMILES	inhibition at 100 µM [1] [%]
26.9 ± 0.64	24	16	22	22 to 26	6	6.93 ± 1.18	0	1.42 ± 0.54	11	4.56 ± 1.73	0	6	30	36 to 45		O=C(Nc1cccc(C(F)(F)F)c1)c1ccc(Cn2cnc3c(Cl)nc(Cl)nc32)cc1 [Compound 7, 4-((2,6-Dichloro-9H-purin-9-yl)methyl)-N-(3-(trifluoromethyl)phenyl)benzamide]	98.9
18 ± 0.73	36	43		11	9	6.05 ± 1.03	0	1.52 ± 0.66	16	24.8 ± 3.25	0	0		39		Cc1cn(-c2cc(NC(=O)c3ccc(Cn4cnc5c(Cl)nc(Cl)nc54)cc3)cc(C(F)(F)F)c2)cn1 [Compound 10, 4-((2,6-Dichloro-9H-purin-9-yl)methyl)-N-(3-(4-methyl-1H-imidazol-1-yl)-5-(trifluoromethyl)-phenyl)benzamide]	98.5
13 ± 0.67	24	21		0	29	15.4 ± 1.92	0	26.1 ± 1.23	30	15.5 ± 2.27	0	0		17	212 to 214	COc1nc(Cl)nc2c1ncn2Cc1ccc(C(=O)Nc2cccc(C(F)(F)F)c2)cc1 [Compound 13, 4-((2-Chloro-6-methoxy-9H-purin-9-yl)methyl)-N-(3-(trifluoromethyl)phenyl)benzamide]	100
20.1 ± 0.81	18	17		8	9	33.7 ± 7.49	0	48.6 ± 3.02	27	10.6 ± 2.88	0	17		20	160 to 162	COc1nc(Cl)nc2c1ncn2Cc1ccc(C(=O)Nc2cc(-n3cnc(C)c3)cc(C(F)(F)F)c2)cc1 [Compound 14, 4-((2-Chloro-6-methoxy-9H-purin-9-yl)methyl)-N-(3-(4-methyl-1H-imidazol-1-yl)-5-(trifluoromethyl)phenyl)benzamide]	99.1
	17	28		0	0		0	7.18	13		0	0		33	272 to 274	Nc1nc(Cl)nc2c1ncn2Cc1ccc(C(=O)Nc2cccc(C(F)(F)F)c2)cc1 [Compound 15, 4-((6-Amino-2-chloro-9H-purin-9-yl)methyl)-N-(3-(trifluoromethyl)phenyl)benzamide]	93.5

SMILES	IC50 (A549 (lung carcinoma)) [µM]	inhibition at 0.5 µM (Bcr–Abl1 kinase) [%]	inhibition at 10 µM (Bcr–Abl1 kinase) [%]	% Inhibition at 1 µM, HER2 (HER2) [%]	inhibition at 1 µM (HER2) [%]	inhibition at 1 µM (EGFR) [%]	IC50 (HeLa (cervix carcinoma)) [µM]	inhibition at 1 µM (HER4) [%]	IC50 [2] [µM]	inhibition at 1 µM (KDR (VEGFR-2)) [%]	IC50 [3] [µM]	inhibition at 1 µM (IGF1R) [%]	inhibition at 1 µM (InsR) [%]	% Inhibition at 1 µM, PDGFRβ (PDGFRβ) [%]	inhibition at 1 µM (PDGFRβ) [%]	melting point [°C]	inhibition at 100 µM [1] [%]
CNC(=O)c1cc(Oc2ccc(NC(=O)Nc3ccc(Cl)c(C(F)(F)F)c3)cc2)ccn1 [Sorafenib, sorafenib, reference compound]	6.01 ± 1.27						6.82 ± 2.64				13.6 ± 1.71						100
